Measurements from ChEMBL document CHEMBL3885881, “DrugMatrix”.

Species: Rattus norvegicus
Type: toxicity, organism-based, Sprague-Dawley
Settings: in vivo, po, route oral GAVAGE, […]; for ABSOLUTE EOSINOPHIL / ABSOLUTE LYMPHOCYTE / ABSOLUTE MONOCYTE / ABSOLUTE SEGMENTED NEUTROPHIL / BASOPHIL / EOSINOPHIL / ERYTHROCYTE COUNT / HEMATOCRIT / HEMOGLOBIN / LEUKOCYTE COUNT / LYMPHOCYTE / MEAN CORPUSCULAR HEMOGLOBIN / MEAN CORPUSCULAR HEMOGLOBIN CONCENTRATION / MEAN CORPUSCULAR VOLUME / MONOCYTE / NEUTROPHIL / NUCLEATED RED BLOOD CELLS / PLATELET COUNT: tissue Blood; for ALANINE AMINOTRANSFERASE / ALBUMIN / ALKALINE PHOSPHATASE / ASPARTATE AMINOTRANSFERASE / BLOOD UREA NITROGEN / CARBON DIOXIDE / CHLORIDE / CHOLESTEROL / CREATINE PHOSPHOKINASE / CREATININE / GLUCOSE / LACTATE DEHYDROGENASE / LIPASE / PHOSPHORUS / POTASSIUM / SODIUM / TOTAL BILIRUBIN / TOTAL PROTEIN / URIC ACID: tissue Plasma
[1] = 0 mg/kg, 6 h, vehicle control, dose level Control, time 0.25 day
[2] = 0 mg/kg, 24 h, vehicle control, dose level Control, time 1 day
[3] = 130 mg/kg, 6 h, dose level Low, time 0.25 day

Description: DrugMatrix - Regimen: Single

## CCOC(=O)C(C)(C)Oc1ccc(Cl)cc1 [CLOFIBRATE]
[1]
  ABSOLUTE EOSINOPHIL: 0 CELLS/uL
  ABSOLUTE LYMPHOCYTE: 8631 CELLS/uL
  ABSOLUTE MONOCYTE: 171.17 CELLS/uL
  ABSOLUTE SEGMENTED NEUTROPHIL: 1214.5 CELLS/uL
  BASOPHIL: 0%
  EOSINOPHIL: 0%
  ERYTHROCYTE COUNT: 5.42 x10E6/uL
  HEMATOCRIT: 34.7%
  HEMOGLOBIN: 13.67 G/DL
  LEUKOCYTE COUNT: 10.02 x10E3/uL
  LYMPHOCYTE: 86.17%
  MEAN CORPUSCULAR HEMOGLOBIN: 25.27 pg
  MEAN CORPUSCULAR HEMOGLOBIN CONCENTRATION: 39.42 G/DL
  MEAN CORPUSCULAR VOLUME: 64.12 fL
  MONOCYTE: 1.67%
  NEUTROPHIL: 12.17%
  NUCLEATED RED BLOOD CELLS: 0 /100WBC
  PLATELET COUNT: 1050 x10E3/uL
  ALANINE AMINOTRANSFERASE: 61 u/L
  ALBUMIN: 4.67 G/DL
  ALKALINE PHOSPHATASE: 312.5 u/L
  ASPARTATE AMINOTRANSFERASE: 117.5 u/L
  BLOOD UREA NITROGEN: 8.67 mg/dL
  CARBON DIOXIDE: 26.33 mmol/L
  CHLORIDE: 100.5 MEQ/L
  CHOLESTEROL: 72 mg/dL
  CREATINE PHOSPHOKINASE: 283.33 u/L
  CREATININE: 0.28 mg/dL
  GLUCOSE: 172 mg/dL
  LACTATE DEHYDROGENASE: 95.33 u/L
  LIPASE: 10.17 u/L
  PHOSPHORUS: 9.9 mg/dL
  POTASSIUM: 5.75 MEQ/L
  SODIUM: 142.4 MEQ/L
  TOTAL BILIRUBIN: 0.3 mg/dL
  TOTAL PROTEIN: 5.43 G/DL
  URIC ACID: 0.73 mg/dL
[2]
  ABSOLUTE EOSINOPHIL: 90.83 CELLS/uL
  ABSOLUTE LYMPHOCYTE: 14725.17 CELLS/uL
  ABSOLUTE MONOCYTE: 220 CELLS/uL
  ABSOLUTE SEGMENTED NEUTROPHIL: 1080.67 CELLS/uL
  BASOPHIL: 0%
  EOSINOPHIL: 0.67%
  ERYTHROCYTE COUNT: 5.3 x10E6/uL
  HEMATOCRIT: 33.4%
  HEMOGLOBIN: 13.4 G/DL
  LEUKOCYTE COUNT: 16.12 x10E3/uL
  LYMPHOCYTE: 91.17%
  MEAN CORPUSCULAR HEMOGLOBIN: 25.3 pg
  MEAN CORPUSCULAR HEMOGLOBIN CONCENTRATION: 40.12 G/DL
  MEAN CORPUSCULAR VOLUME: 63.05 fL
  MONOCYTE: 1.5%
  NEUTROPHIL: 6.67%
  NUCLEATED RED BLOOD CELLS: 0 /100WBC
  PLATELET COUNT: 1062 x10E3/uL
  ALANINE AMINOTRANSFERASE: 69 u/L
  ALBUMIN: 4.33 G/DL
  ALKALINE PHOSPHATASE: 269 u/L
  ASPARTATE AMINOTRANSFERASE: 83.67 u/L
  BLOOD UREA NITROGEN: 14 mg/dL
  CARBON DIOXIDE: 29 mmol/L
  CHLORIDE: 100.83 MEQ/L
  CHOLESTEROL: 66.67 mg/dL
  CREATINE PHOSPHOKINASE: 355 u/L
  CREATININE: 0.18 mg/dL
  GLUCOSE: 161.33 mg/dL
  LACTATE DEHYDROGENASE: 123.33 u/L
  LIPASE: 10.67 u/L
  PHOSPHORUS: 8.83 mg/dL
  POTASSIUM: 6.06 MEQ/L
  SODIUM: 142.45 MEQ/L
  TOTAL BILIRUBIN: 0.2 mg/dL
  TOTAL PROTEIN: 5.72 G/DL
  URIC ACID: 1.27 mg/dL
[3]
  ABSOLUTE EOSINOPHIL: 53.33 CELLS/uL
  ABSOLUTE LYMPHOCYTE: 12668.17 CELLS/uL
  ABSOLUTE MONOCYTE: 233.17 CELLS/uL
  ABSOLUTE SEGMENTED NEUTROPHIL: 1278.67 CELLS/uL
  BASOPHIL: 0%
  EOSINOPHIL: 0.33%
  ERYTHROCYTE COUNT: 5.56 x10E6/uL
  HEMATOCRIT: 34.18%
  HEMOGLOBIN: 13.43 G/DL
  LEUKOCYTE COUNT: 14.23 x10E3/uL
  LYMPHOCYTE: 88.83%
  MEAN CORPUSCULAR HEMOGLOBIN: 24.17 pg
  MEAN CORPUSCULAR HEMOGLOBIN CONCENTRATION: 39.33 G/DL
  MEAN CORPUSCULAR VOLUME: 61.53 fL
  MONOCYTE: 1.67%
  NEUTROPHIL: 9.17%
  NUCLEATED RED BLOOD CELLS: 0 /100WBC
  PLATELET COUNT: 1136.67 x10E3/uL
  ALANINE AMINOTRANSFERASE: 40.17 u/L
  ALBUMIN: 4.38 G/DL
  ALKALINE PHOSPHATASE: 384.83 u/L
  ASPARTATE AMINOTRANSFERASE: 76.67 u/L
  BLOOD UREA NITROGEN: 7.4 mg/dL
  CARBON DIOXIDE: 25 mmol/L
  CHLORIDE: 101.4 MEQ/L
  CHOLESTEROL: 63.33 mg/dL
  CREATINE PHOSPHOKINASE: 249.67 u/L
  CREATININE: 0.36 mg/dL
  GLUCOSE: 139.83 mg/dL
  LACTATE DEHYDROGENASE: 146.17 u/L
  LIPASE: 10.2 u/L
  PHOSPHORUS: 10.1 mg/dL
  POTASSIUM: 5.97 MEQ/L
  SODIUM: 142.94 MEQ/L
  TOTAL BILIRUBIN: 0.38 mg/dL
  TOTAL PROTEIN: 5.73 G/DL
  URIC ACID: 0.96 mg/dL
